Measurements as given in patent US20130101565A1, “USE OF CARBONIC ANHYDRASE II FOR PRODUCING A DRUG” (CONSEJO SUPERIOR DE INVESTIGACIONES CIENTIFICAS (CSIC), priority 2009, published 2013).

Assays:
Erythropoietin (EPO) = assay: In vivo renal ischemia-reperfusion: Western Blot for EPO in renal tissue; set-up: species or system Swiss strain mice; conditions: vs I/R, FIG. 3
Method: (§1) Swiss strain mice were used, males with an approximate weight of 25-30 g (Charles River, France). All the procedures were performed under the supervision of the ethics committee of the Institute for Biomedical Research of Barcelona (CSIC) and followed European Union guidelines. The environmental conditions were kept constant, the temperature was 21-22° C., the relative humidity was 70% and the alternative cycles of light/darkness were 12 h. The animals were fed a standard diet of AO4 fodder (Panlab, Barcelona) and water from the Barcelona supply network ad libitum.
(§2) The animals were anaesthesised with Isoflurane, placed in the supine position, and their body temperature was maintained at between 36° C. and 37° C. […]
The renal tissue samples were homogenised in lysis buffer (70 mM sucrose, 2 mM Hepes KOH, 220 mM Mannitol, 0.1 mM EGTA, 1 mM PMSF, 0.1 mM BSA, antiproteases cocktail (SIGMA)); subsequently, the protein concentration thereof was determined. The proteins were determined by means of the Bradford colorimetric method with a commercial reagent from BioRad.
50 μg of protein for each of the groups to be analysed were placed in each well of the 12% acrylamide gel. […]

PCNA and Stathmin genes = assay: In vivo renal ischemia-reperfusion: real-time RT-PCR of regeneration markers PCNA and Stathmin in kidney; set-up: species or system Swiss strain mice; conditions: FIG. 1
Method: as §1
The animals were anaesthesised with Isoflurane, placed in the supine position, and their body temperature was maintained at between 36° C. and 37° C. After performing a median laparotomy to access the kidney, carefully putting aside the intestinal packet, bilateral ischemia was induced by clamping both renal arterio-venous pedicles with a non-traumatic microvascular clamp for 45 minutes. Subsequently, the reperfusion period was started, with removal of the clamp, and it was visually verified by observing the return of the blood flow to the kidney. Subsequently, the animal was sutured and administered subcutaneous Buprex (4.16 μg/100 g of weight).
Animals subjected to a sham operation were used as controls. During the entire operation process, the animals were well hydrated and the body temperature was maintained at about 37° C. During the reperfusion time, the animals were stabulated under the control of a veterinary. […]
(§3) The RNA of the kidney samples was extracted by means of the TRIzol reagent in accordance with the manufacturer's instructions (Invitrogen, Barcelona). […] The RNA concentrations were calculated by determining the absorbance at 260 nm. The integrity of the RNA thus obtained was examined by analysing the 18s and 28s ribosomal RNA bands detected and analysed in the Bioanalyzer of the Clinical Hospital of Barcelona (Agilent).
The expression of the analysed genes was measured by means of real-time quantitative RT-PCR normalised with the glyceraldehyde 3-phosphate dehydrogenase (GAPDH) housekeeping gene. […]

caspase 3 = assay: In vivo renal ischemia-reperfusion: apoptosis evaluated by activity of caspase 3 in renal tissue; set-up: species or system Swiss strain mice; conditions: FIG. 2
Method: as §1, §2
(§4) The activity of caspase-3 was determined by measuring the proteolysis of the specific substrate (N-acetyl-Asp-Glu-Val-Asp-7-amino-4-methyl coumarin (DEVD-AMC; Biomol, Plymouth Meeting, Pa.). The renal tissue samples were homogenised and sonicated in the assay buffer (50 mM HEPES, 10% sucrose, 0.1% CHAPS, 5 mM GSSG, 5 mM DTT). The supernatants of the samples were incubated in this buffer, whereto DEVD-AMC at a concentration of 50 μM was added. The AMC released was quantified for 1 hour and a half at 37° C. by fluorospectrophotometry, using 380 nm of excitation and measuring the emission at 450 nm.

[1] = system: Proximal tubular epithelial cells from rats (NRK52e); assay: In vitro cisplatin-induced damage of renal tubular cells: apoptosis evaluated by activity of caspase 3; type: cell-based; conditions: cisplatin+CAII group: NRK52e, cisplatin 200 μM 6 h, then 10 μg/ml CAII 16 h; vs cisplatin; FIG. 5
Method: (§5) Proximal tubular epithelial cells from rats (NRK52e) were kept in culture bottles (75 cm^2), with a culture medium (DMEM) whereto 17.5 mM of glucose and 2.5 mM of glutamine were added; this medium was also supplemented with antibiotics (100 units/ml of penicillin and 100 μg/ml of streptomycin) and 10% foetal calf serum (FCS). The cells were incubated in a humidified atmosphere with 5% CO2 at 37° C.
(§6) The control cells (control) were collected when they reached confluence without any treatment.
Treatment with cisplatin (Sigma) was performed by dissolving the drug in the minimum volume of DMSO (40 μl) and diluting it in PBS at a concentration of 200 μM. […]
as §4, with “Pa.). The cell culture samples were” for “Pa.). The renal tissue samples were”, “of the sample were incubated” for “of the samples were incubated”, “C. by means of fluorospectrophotometry, using” for “C. by fluorospectrophotometry, using”

[2] = system: Proximal tubular epithelial cells from rats (NRK52e); assay: In vitro cisplatin-induced damage of renal tubular cells: real-time RT-PCR of PCNA and Ki67; type: cell-based; conditions: cis+CAII group: NRK52e, cisplatin 200 μM 6 h, then 10 μg/ml CAII 16 h; vs cis; FIG. 4
Method: as §5, §6
Treatment with cisplatin (Sigma) was performed by dissolving the drug in the minimum volume of DMSO (40 μl) and diluting it in PBS at a concentration of 200 μM. After 6 hours, the medium was removed and a new medium was added, without the drug for the CIS group and with 10 μg/ml of CAII for the CIS+CAII group. The samples were collected 16 hours later. […]
as §3, with “the” for “the kidney”, “samples taken from the cell culture” for “samples”, “using” for “by means of”
The expression of the analysed genes was measured by means of real-time quantitative RT-PCR normalised with GAPDH. […]

[3] = I/R+AZT group: Azetazolamide 30 mg/kg intraperitoneal one day prior to I/R

## carbonic anhydrase II [CAII]
Erythropoietin (EPO); I/R+CAII group: CAII 5 mg/kg at beginning of reperfusion
  amount of EPO in kidney (Western Blot): marked increase
PCNA and Stathmin genes; I/R+CAII group: 45 min ischemia, 24 h reperfusion, CAII 5 mg/kg into inferior vena cava at beginning of reperfusion, vs I/R
  regenerative response (expression of PCNA and Stathmin mRNA): marked increase
PCNA and Stathmin genes; control+CAII group: no I/R, CAII 5 mg/kg intravenous 24 h prior to sample collection
  regeneration (PCNA and Stathmin mRNA) in undamaged tissue: did not induce regeneration
Caspase 3; I/R+CAII group: CAII 5 mg/kg at beginning of reperfusion, vs I/R
  incidence of apoptosis (activity of caspase 3): drastically reduced
Caspase 3; control+CAII group: no I/R, CAII 5 mg/kg intravenous
  apoptosis naturally present in healthy tissue (activity of caspase 3): does not affect
[1]
  apoptosis (activity of caspase 3): capable of reverting apoptosis
[2]
  regeneration (expression of PCNA and Ki67 mRNA): significantly increased regeneration

## CC(=O)Nc1nnc(S(N)(=O)=O)s1 [azetazolamide, Azetazolamide, reference compound]
Erythropoietin (EPO); [3]
  amount of EPO in kidney (Western Blot): reduced the amount of EPO
PCNA and Stathmin genes; [3]
  regenerative markers (PCNA and Stathmin mRNA): decrease
